Test results: patent US7989466B2, “Methods to inhibit or augment an inflammatory response” (Cambridge Enterprise Limited, priority 1999, dated 2011)
Marks after values point to notes of the source that are not given here. Positions of bridges follow the written chain, without caps; N, C: chain ends. Non-standard residues stand in square brackets, D forms with d. No end group written: not given here.

How the values were obtained:
[1] = system: MIP1α induced THP-1 migration; experiment: THP-1 trans-well migration assay, MIP1α as chemoattractant; type: cell-based, human; details: ns = not significantly different from control
Procedure: (§1) To determine whether an agent inhibits a chemokine-induced activity, such as macrophage recruitment, varying amounts of the agent are mixed with cells in the presence of a known chemoattractant. For example, a range of known concentrations of an agent, e.g., a chemokine peptide, is incubated with a defined number (e.g., 10^4-10^6) of human THP-1 monocyte cells in individual wells of the top compartment of a trans-well plate. Chemokine (such as MCP-1, MIP1α, IL8 or SDF-1α), at a concentration known to cause significant migration of THP-1 cells in the trans-well migration assay, is placed in the lower compartment (FIG. 1). Cells are then incubated at 37° C. for a period sufficient to allow migration, e.g., 4 hours. After incubation, the cells are gently removed from the top of the filter with a pipette, 20 μl of 20 mM EDTA in simple PBS is added into each top well, and incubated for 20 minutes at 4° C. The filter is carefully flushed with media using a gentle flow, and removed. A standard curve consisting of a two-fold dilution series of THP-1 cells (in 29 μl) is prepared to accurately quantify the number of cells that have migrated. Migrated cells are stained with 3 μl of MTT stock dye solution which is added directly into each well (5 mg/ml in RPMI-1640 without phenol red, Sigma Chemical Co.) and incubated at 37° C. for 4 hours. The media is carefully aspirated from each well, and the converted dye is solubilized by 20 μl of DMSO. Absorbance of converted dye is measured at a wavelength of 595 nm using an ELISA plate reader. The number of migrated cells in each well is then determined by interpolation of the standard curve (see also Imai et al., J. Biol. Chem., 272, 15036 (1997)).
(§2) For this assay, THP-1 cells were maintained at a density of 4×10^5 cells per ml in RPMI-1640 supplemented with 10% fetal calf serum+20 μM 2-mercaptoethanol. Chemotaxis was induced in a 96-well disposable chemotaxis chamber fitted with a […] polycarbonate filter (PVP free, ChemoTX, Neuroprobe Inc., Cabin John). Twenty-nine μl of chemoattractant (recombinant human chemokine; 50 ng/ml, i.e., 5.9 nM) or control (100 ng/ml TGFβ) was added to the lower compartment of each well. The framed filter was aligned with the holes in the corner of the filter frame and placed over the wells. Five×10^4 THP-1 cells in 25 μl of RPMI-1640 were added to the upper compartment. Peptides were dissolved in Milli Q water and then serially diluted in culture medium. In most cases, the serially diluted peptides were added to the upper compartment of the chemotaxis chamber. The chamber was incubated at 37° C. in a humidified atmosphere of 5% CO2 for 4 hours.
(§3) After incubation, the cells were gently removed from the top of the filter with a pipette, 20 μl of 20 mM EDTA in PBS was added into each top well, and the mixture was incubated for 20 minutes at 4° C. The filter was then carefully flushed with media using a gentle flow, and removed. A standard curve was prepared to accurately quantify the number of THP-1 cells that had migrated. The curve was based on a two-fold dilution series of THP-1 cells (top standard 100,000 cells in 29 μl). Cells which had migrated, and in separate wells, the cells in the standards, were stained with 3 μl of MTT stock solution which was added directly into each well (5 mg/ml in RPMI 1640 without phenol red, Sigma Chemical Co.) and incubated at 37° C. for 4 hours. The media was carefully aspirated from each well, and the converted dye was solubilized by 20 μl of DMSO. Absorbance of converted dye was measured at a wavelength of 595 nm using an ELISA plate reader. The number of cells that had migrated in each well was determined by interpolation of the standard curve.

gp120 = details: ns = not significantly different from control; >100 = ED50 not determined
[2] = system: SDF-1α induced THP-1 migration; experiment: THP-1 trans-well migration assay, SDF-1α as chemoattractant; type: cell-based, human; details: ns = not significantly different from control
Procedure: as §1, §2, §3

[3] = system: MCP-1 induced THP-1 migration; experiment: THP-1 trans-well migration assay, MCP-1 as chemoattractant; type: cell-based, human; details: ns = not significantly different from control
Procedure: as §1, §2, §3

HIV = type: cell-based; details: ns = not significantly different from control
[4] = in vivo; cited from earlier work
[5] = target: T1, Duffy Antigen Receptor for Chemokines (DARC) (Homo sapiens, UniProt Q16570); experiment: DARC binding: competition with 125I-MCP-1 on red blood cells; details: for DARC binding: ns = not significantly different from control, >100 = ED50 not determined
T1 sequence (Q16570 1-336): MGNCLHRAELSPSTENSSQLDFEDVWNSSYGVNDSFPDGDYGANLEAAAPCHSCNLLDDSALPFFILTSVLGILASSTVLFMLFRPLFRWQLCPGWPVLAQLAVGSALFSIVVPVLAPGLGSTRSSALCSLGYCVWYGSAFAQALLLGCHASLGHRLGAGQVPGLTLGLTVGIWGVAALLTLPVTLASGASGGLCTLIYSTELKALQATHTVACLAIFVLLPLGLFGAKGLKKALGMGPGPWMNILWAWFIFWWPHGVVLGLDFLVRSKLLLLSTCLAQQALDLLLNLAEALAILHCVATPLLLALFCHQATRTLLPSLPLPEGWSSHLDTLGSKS

[6] = system: chemokine receptors on THP-1 cells; experiment: Binding to chemokine receptors on THP-1 cells; design: species or system human
Procedure: In general, specific binding is calculated as the amount of labeled agent bound in the absence of cold competitor minus the amount of labeled agent bound in the presence of cold competitor. The amount of specific binding in the presence of varied amounts of cold competitor can be used to determine the association constant for the agent, as well as the number of binding sites on the cell for the agent, using, for example, Scatchard Analysis. The agent may be labeled by radiolabeling (e.g., iodination) or with a suitable biochemical tag (e.g., biotin) or by addition of a photoactivatable crosslinking group. Agents with an association constant lower than 100 μM (i.e., which bind more strongly than an agent with an association constant of 100 μM) and which have at least about 2,500, preferably at least about 10,000, and more preferably greater than 25,000, binding sites per cell for at least one cell type which expresses a chemokine receptor, fall under the scope of this invention. THP-1 cells have at least about 5,000 MCP-1 receptors/cell.
For example, monocytes are suspended in RPMI 1640 medium without bicarbonate containing 0.2% bovine serum albumin and 0.1% azide. Radiolabeled chemokine peptide is incubated with 1-2×10^6 cells, e.g., THP-1 cells, in the presence or absence of increasing concentrations of unlabeled chemokine (MCP-1, MCP-3, MCP-4, RANTES or MIP-1α) for 15 minutes at 37° C. in a 96-well plate in a final volume of 0.2 ml (e.g., PBS+0.5% FCS). After the incubation, 0.5 ml of ice-cold wash buffer (20 mM Tris, 0.5 M NaCl, pH 7.4) is added, and cells are collected onto a polyethyleneimine-treated Whatman GF/C filter using a Brandall cell harvester. Filters are washed with 4 ml of cold wash buffer, and the radioactivity bound to the filters is counted in a γ-counter.
For Scatchard analysis, the absorbance readings at 450 nm were calibrated, by reference to a standard curve in which known amounts of labeled peptide were coupled to derivatized sepharose beads (activated thiol-sepharose 4B; Sigma T8512) via the cysteine residue in each peptide. Briefly, known amounts (1 fmol to 1 pmol) of biotin-labeled peptide were incubated with 1 mg of activated thiol-sepharose beads in 100 μl of PBS at 37° C. for 1 hour. Free activated thiols were then blocked by addition of cysteine to a final concentration of 10 mM. The peptide-conjugated beads were then washed 5 times in PBS and treated exactly as for the cells described above. The absorbance at 450 nm obtained when a known amount of peptide was coupled to the beads was used to construct a standard curve which was used to convert the absorbance readings obtained with cells into number of molecules of labeled peptide which had bound.

[7] = system: chemokine-induced THP-1 migration; experiment: THP-1 trans-well migration assay, panel of chemokines (MCP-1, MIP1α, IL-8, SDF1α); type: cell-based, human; details: MCP-1, MIP1α, IL-8, SDF1α
[8] = system: RANTES induced THP-1 migration; experiment: THP-1 trans-well migration assay, RANTES as chemoattractant; type: cell-based, human; details: tripeptide at 100 μM, mean ± range; dash = no statistically significant reduction in migration
Procedure: To determine whether an agent inhibits a chemokine-induced activity, such as macrophage recruitment, varying amounts of the agent are mixed with cells in the presence of a known chemoattractant. For example, a range of known concentrations of an agent, e.g., a chemokine peptide, is incubated with a defined number (e.g., 10^4-10^6) of human THP-1 monocyte cells in individual wells of the top compartment of a trans-well plate. Chemokine (such as MCP-1, MIP1α, IL8 or SDF-1α), at a concentration known to cause significant migration of THP-1 cells in the trans-well migration assay, is placed in the lower compartment (FIG. 1). […] A standard curve consisting of a two-fold dilution series of THP-1 cells (in 29 μl) is prepared to accurately quantify the number of cells that have migrated. […] Absorbance of converted dye is measured at a wavelength of 595 nm using an ELISA plate reader. The number of migrated cells in each well is then determined by interpolation of the standard curve (see also Imai et al., J. Biol. Chem., 272, 15036 (1997)). […]
After incubation, the cells were gently removed from the top of the filter with a pipette, 20 μl of 20 mM EDTA in PBS was added into each top well, and the mixture was incubated for 20 minutes at 4° C. […] A standard curve was prepared to accurately quantify the number of THP-1 cells that had migrated. […]

[9] = system: TGF-beta receptor of THP-1 cells; experiment: Binding of biotinylated TGF-beta peptides to THP-1 cells; design: species or system human; details: for EC50: biotinylated peptide, read-out: ED50 of binding to the TGF-beta receptor of THP-1 cells

| Compound | MIPIa ED-50 [1] | gp120 ED-50 (gp120) | SDF1a ED-50 [2] | MCP-1 ED-50 [3] | % virus inhibition (HIV) | DARC binding [5] | also measured |
| --- | --- | --- | --- | --- | --- | --- | --- |
| CC[C@H](C)[C@H](NC(=O)[C@H](CCCNC(=N)N)NC(=O)[C@H](CCCNC(=N)N)NC(=O)[C@H](Cc1ccc(O)cc1)NC(=O)[C@@H](N)CO)C(=O)N[C@H](C(=O)N[C@@H](CO)C(=O)N[C@@H](CO)C(=O)N[C@@H](CCCCN)C(=O)N[C@@H](CS)C(=O)O)[C@@H](C)O | ns | 60 µM | ns | ns | ns | – | – |
| NCC[C@H](O)C(=O)N[C@@H]1C[C@H](N)[C@@H](O[C@H]2O[C@H](CN)[C@@H](O)[C@H](O)[C@H]2O)[C@H](O)[C@H]1O[C@H]1O[C@H](CO)[C@@H](O)[C@H](N)[C@H]1O [amikacin] | – | – | – | – | – | – | T1/2 [4]: about 2 hours; Vd [4]: 0.27 L/kg; urinary excretion [4]: 98% |
| =cvaekpsksstirrysc= ([dC][dV][dA][dE][dK][dP][dS][dK][dS][dS][dT][dI][dR][dR][dY][dS][dC]; disulfide 1-17 (inferred); not fully specified (C-terminus); printed as =cvaekpsksstirrysc=) | ns | ns | ns | ns | ns | – | – |
| CSKPGV | ns | ns | ns | ns | ns | ns | – |
| CSYRRITSSKSPKEAVC | ns | – | ns | ns | ns | ns | – |
| DYFETSSQC | ns | ns | ns | ns | ns | ns | – |
| HLKILNTPNCALQIV [Pep2[SDF1]] | 40 =M | 35 µM | 7 =M | 10 =M | – | – | DUFFY SELECTIVITY, peptide 2 family ([5]; ka for binding to red blood cells divided by the ka for binding THP-1 cells): <1^d; AVERAGE ED50, peptide 2 family: estimated ka for binding to THP-1 cells [6]: 1-10^e μM; effect on THP-1 migration induced by the chemokine panel, in words [7]: potent pan-chemokine antagonist properties |
| SES | – | – | – | – | – | – | percentage inhibition of migration induced by RANTES [8]: 87 ± 4% |
| SYRRI | ns | ns | ns | ns | ns | ns | – |
| TSSKC | ns | ns | ns | ns | ns | ns | – |
| biotinylated HEPKGYHANFC [Biotinylated T2] | – | – | – | – | – | – | receptor character (agonist, antagonist, neutral) [9]: weak receptor antagonist; EC50 [9]: 30 µM |
| biotinylated LYIDFRQDLGWKW (also: biotinylated, site not given here) [Biotinylated T1] | – | – | – | – | – | – | receptor character (agonist, antagonist, neutral) [9]: receptor neutral agent; EC50 [9]: 18 µM |
| vgpkscqsstefyd | ns | ns | ns | ns | ns | ns | – |
